Test results: ChEMBL document CHEMBL1133407, “Ring constrained analogues of beta-alanine-containing GPIIb/IIIa receptor antagonists” (Bioorg Med Chem Lett, 2000)

How the values were obtained:
[1] = target: T1, Integrin alpha-IIb/beta-3 (Homo sapiens, UniProt P05106+P08514); test: Relative binding to unactivated/activated platelets
[2] = target: T1, Integrin alpha-IIb/beta-3; test: Inhibition of GPIIb/IIIa binding in activated human platelets; format: functional
Target sequence in this assay (P05106 27-788 limits assumed): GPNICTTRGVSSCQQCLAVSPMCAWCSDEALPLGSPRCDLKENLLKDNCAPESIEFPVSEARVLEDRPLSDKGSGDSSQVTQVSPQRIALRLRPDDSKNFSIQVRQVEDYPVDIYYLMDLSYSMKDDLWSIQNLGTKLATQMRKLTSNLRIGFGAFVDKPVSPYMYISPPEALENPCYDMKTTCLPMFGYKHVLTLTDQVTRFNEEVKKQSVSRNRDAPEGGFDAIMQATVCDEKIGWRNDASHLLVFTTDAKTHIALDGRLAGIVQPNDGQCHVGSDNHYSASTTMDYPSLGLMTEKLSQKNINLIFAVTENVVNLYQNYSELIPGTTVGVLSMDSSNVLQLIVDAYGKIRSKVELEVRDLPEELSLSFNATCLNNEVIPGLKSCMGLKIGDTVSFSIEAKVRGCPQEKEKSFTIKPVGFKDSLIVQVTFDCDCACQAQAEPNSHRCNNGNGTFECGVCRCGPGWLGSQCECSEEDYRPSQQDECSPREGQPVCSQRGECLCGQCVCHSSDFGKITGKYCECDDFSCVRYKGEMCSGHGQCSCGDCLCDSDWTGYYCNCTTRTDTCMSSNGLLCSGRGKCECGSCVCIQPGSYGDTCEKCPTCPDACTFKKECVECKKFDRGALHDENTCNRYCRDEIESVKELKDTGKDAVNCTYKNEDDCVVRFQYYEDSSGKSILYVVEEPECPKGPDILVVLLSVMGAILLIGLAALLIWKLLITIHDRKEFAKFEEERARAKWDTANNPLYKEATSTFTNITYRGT
Target sequence in this assay (P08514 32-887 limits assumed): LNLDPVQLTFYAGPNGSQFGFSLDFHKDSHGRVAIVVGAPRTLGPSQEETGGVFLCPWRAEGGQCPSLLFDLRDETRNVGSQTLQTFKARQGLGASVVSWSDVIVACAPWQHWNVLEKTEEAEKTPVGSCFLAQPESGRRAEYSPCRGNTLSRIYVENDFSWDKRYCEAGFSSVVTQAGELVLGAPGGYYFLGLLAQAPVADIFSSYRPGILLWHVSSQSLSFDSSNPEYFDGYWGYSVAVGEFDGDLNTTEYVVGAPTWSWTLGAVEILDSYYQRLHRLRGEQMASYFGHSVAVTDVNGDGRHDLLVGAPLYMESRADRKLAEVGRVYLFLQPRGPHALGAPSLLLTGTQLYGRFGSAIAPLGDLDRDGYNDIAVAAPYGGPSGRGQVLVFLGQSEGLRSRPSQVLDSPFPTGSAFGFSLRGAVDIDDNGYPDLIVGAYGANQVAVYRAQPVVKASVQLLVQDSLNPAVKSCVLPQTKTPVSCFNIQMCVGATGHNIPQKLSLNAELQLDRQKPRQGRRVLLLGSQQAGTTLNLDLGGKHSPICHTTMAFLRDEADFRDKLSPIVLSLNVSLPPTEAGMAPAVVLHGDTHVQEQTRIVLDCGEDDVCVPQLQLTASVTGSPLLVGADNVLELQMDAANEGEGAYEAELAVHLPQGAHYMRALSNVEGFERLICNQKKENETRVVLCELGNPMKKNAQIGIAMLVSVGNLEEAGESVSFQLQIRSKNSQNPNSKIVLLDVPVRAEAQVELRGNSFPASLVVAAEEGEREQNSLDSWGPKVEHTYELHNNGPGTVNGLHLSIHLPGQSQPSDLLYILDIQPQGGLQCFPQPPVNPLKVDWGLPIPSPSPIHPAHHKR
Target sequence in this assay (P08514 891-1039 limits assumed): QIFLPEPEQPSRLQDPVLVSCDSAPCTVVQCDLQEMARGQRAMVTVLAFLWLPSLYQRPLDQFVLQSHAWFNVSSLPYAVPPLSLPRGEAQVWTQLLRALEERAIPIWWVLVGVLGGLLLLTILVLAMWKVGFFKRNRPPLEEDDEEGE

[3] = target: T1, Integrin alpha-IIb/beta-3; test: Inhibition of Platelet glycoprotein IIb/Platelet glycoprotein IIIa binding in unactivated human platelets
Target sequence in this assay (P05106 27-788 limits assumed): as the sequence (P05106 27-788 limits assumed) above
Target sequence in this assay (P08514 32-887 limits assumed): as the sequence (P08514 32-887 limits assumed) above
Target sequence in this assay (P08514 891-1039 limits assumed): as the sequence (P08514 891-1039 limits assumed) above

Row | SMILES | Ratio [1] | IC50 [2] [µM] | IC50 [3] [µM]
1 | N=C(N)c1ccc(C2=NOC(CC(=O)NCCC(=O)O)C2)cc1 (stereo not given) | 28 | 0.004 | 0.112
2 | N=C(N)c1ccc(C2=NOC(CC(=O)N3CCCCC3CC(=O)O)C2)cc1 (single isomer, unassigned; isomer B) [listing 1 of 2 here] | – | 0.302 | 5.8
3 | N=C(N)c1ccc(C2=NOC(CC(=O)N3CCCCC3CC(=O)O)C2)cc1 (single isomer, unassigned; isomer B) [listing 2 of 2 here] | 19 | – | –

Second part, the molecule after the results:

Row | Ratio [1] | IC50 [2] [µM] | IC50 [3] [µM] | SMILES
4 | – | 0.002 | 0.064 | N=C(N)c1ccc(C2=NOC(CC(=O)N3CCCCC3CC(=O)O)C2)cc1 (single isomer, unassigned; isomer C) [listing 1 of 2 here]
5 | 32 | – | – | N=C(N)c1ccc(C2=NOC(CC(=O)N3CCCCC3CC(=O)O)C2)cc1 (single isomer, unassigned; isomer C) [listing 2 of 2 here]
6 | – | – | > 5 | N=C(N)c1ccc(C2=NOC(CC(=O)N3CCCCC3CC(=O)O)C2)cc1 (single isomer, unassigned; isomer D)
